Experimental data from BindingDB's records for doi:10.1016/j.ejmech.2021.113986 (Yantai University, 2022).

How the values were obtained:
Cytochrome P450 2C9 = Cytochrome P450 2C9 (Homo sapiens, UniProt P11712); assay: Inhibition of CYP2C9 (unknown origin)
Cytochrome P450 2C19 = Cytochrome P450 2C19 (Homo sapiens, UniProt P33261); assay: Inhibition of CYP2C19 (unknown origin)
[1] = molecular target: Potassium voltage-gated channel subfamily H member 2 (Homo sapiens, UniProt Q12809); assay: Inhibition of human ERG expressed in CHO cells at holding potential of -80 mV by whole cell patch clamp assay
Sequence of Potassium voltage-gated channel subfamily H member 2 (Q12809 whole entry): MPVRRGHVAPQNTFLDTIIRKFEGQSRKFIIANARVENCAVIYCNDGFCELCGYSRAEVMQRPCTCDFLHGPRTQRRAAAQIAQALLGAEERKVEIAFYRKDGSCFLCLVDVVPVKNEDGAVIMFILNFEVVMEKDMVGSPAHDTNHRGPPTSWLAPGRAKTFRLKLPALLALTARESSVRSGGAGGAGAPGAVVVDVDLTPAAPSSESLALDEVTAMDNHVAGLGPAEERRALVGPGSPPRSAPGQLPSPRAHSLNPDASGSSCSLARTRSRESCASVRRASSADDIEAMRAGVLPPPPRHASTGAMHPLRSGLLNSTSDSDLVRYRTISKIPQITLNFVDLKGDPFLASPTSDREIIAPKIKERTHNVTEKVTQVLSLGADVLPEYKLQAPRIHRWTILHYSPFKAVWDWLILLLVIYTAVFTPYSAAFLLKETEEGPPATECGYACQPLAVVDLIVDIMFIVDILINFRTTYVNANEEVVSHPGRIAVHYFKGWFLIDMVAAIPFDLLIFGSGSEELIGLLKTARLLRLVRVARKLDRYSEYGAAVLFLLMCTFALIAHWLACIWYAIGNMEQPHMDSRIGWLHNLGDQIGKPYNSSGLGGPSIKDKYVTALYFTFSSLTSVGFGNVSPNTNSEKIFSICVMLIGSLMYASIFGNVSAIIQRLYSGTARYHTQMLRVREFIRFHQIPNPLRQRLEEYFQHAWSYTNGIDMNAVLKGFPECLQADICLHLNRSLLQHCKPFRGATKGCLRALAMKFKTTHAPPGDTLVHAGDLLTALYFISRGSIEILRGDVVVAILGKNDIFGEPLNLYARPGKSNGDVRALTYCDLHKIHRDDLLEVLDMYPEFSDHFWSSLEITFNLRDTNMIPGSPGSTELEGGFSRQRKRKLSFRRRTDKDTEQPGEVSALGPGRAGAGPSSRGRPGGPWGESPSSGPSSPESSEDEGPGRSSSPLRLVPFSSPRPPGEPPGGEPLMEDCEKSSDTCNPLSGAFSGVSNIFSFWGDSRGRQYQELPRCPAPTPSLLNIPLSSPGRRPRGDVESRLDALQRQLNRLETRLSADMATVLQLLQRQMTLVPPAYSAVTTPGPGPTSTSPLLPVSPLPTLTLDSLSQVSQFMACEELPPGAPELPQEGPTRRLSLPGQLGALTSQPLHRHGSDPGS

Sequence of Cytochrome P450 2C9 (P11712 whole entry): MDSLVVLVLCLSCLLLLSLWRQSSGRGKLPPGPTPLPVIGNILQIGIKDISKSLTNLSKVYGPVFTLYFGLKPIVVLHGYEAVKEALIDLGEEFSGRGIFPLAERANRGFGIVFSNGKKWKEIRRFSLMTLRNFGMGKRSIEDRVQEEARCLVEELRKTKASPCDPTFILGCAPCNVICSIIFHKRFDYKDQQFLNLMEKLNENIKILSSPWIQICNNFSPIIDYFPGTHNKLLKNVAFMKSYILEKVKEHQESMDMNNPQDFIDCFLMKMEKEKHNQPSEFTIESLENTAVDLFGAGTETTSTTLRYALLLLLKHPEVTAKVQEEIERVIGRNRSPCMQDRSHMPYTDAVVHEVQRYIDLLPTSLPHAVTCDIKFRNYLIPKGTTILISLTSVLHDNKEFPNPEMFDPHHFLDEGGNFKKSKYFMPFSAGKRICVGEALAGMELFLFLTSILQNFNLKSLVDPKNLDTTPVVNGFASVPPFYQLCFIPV
Sequence of Cytochrome P450 2C19 (P33261 whole entry): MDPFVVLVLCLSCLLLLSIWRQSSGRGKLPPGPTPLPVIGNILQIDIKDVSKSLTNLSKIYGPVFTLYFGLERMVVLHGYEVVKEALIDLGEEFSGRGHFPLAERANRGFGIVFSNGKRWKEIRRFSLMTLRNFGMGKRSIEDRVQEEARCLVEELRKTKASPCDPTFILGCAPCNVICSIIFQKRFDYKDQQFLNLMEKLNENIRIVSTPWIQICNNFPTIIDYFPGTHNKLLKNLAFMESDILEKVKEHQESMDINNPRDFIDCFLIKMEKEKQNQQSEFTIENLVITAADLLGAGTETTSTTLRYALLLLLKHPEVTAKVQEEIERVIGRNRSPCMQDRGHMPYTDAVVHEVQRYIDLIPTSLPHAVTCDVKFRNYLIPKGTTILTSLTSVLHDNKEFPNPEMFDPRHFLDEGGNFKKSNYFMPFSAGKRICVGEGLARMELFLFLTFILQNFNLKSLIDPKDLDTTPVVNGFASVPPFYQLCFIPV

Structure (SMILES) | IC50 (Cytochrome P450 2C9) | IC50 (Cytochrome P450 2C19) | IC50 [1]
c1ccc([C@]2(CCNCc3scc4c3CCC4)CCO[C@]3(CCOC3)C2)nc1 [US11124523, Example (+)-2] | > 50 µM | > 50 µM | > 40 µM
Fc1ccc([C@]2(CCNCc3cccc(Cl)c3)CCO[C@]3(CCOC3)C2)nc1 [US11124523, Example (+)-16] | > 50 µM |  | 
